# Measured values: US9828369B2, “Isoquinoline derivatives useful as inhibitors of diacylglyceride O-acyltransferase 2” (Merck Sharp & Dohme Corp., priority 2014, dated 2017)
# Target: hDGAT2 (Homo sapiens (Human), UniProt Q96PD7)
# Experiment: DGAT2 enzymatic activity assay (triolein formation, LC/MS/MS)
# Conditions: not given
# hDGAT2, sequence (Q96PD7 whole entry): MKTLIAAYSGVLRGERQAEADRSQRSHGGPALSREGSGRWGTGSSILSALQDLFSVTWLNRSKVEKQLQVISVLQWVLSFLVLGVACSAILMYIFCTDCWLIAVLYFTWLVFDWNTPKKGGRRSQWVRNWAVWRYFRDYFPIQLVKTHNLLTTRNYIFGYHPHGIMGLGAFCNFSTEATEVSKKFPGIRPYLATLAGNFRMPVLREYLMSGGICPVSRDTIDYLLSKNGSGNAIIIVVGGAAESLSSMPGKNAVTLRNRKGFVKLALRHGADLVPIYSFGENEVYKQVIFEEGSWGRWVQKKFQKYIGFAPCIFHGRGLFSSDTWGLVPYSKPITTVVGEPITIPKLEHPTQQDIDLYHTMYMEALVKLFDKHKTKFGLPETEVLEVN
row,IC50 [nM],SMILES
1,373,"CC[C@H](C(=O)NCc1ccc(-c2cccc(OC)c2)c2ccncc12)c1ccc(C(F)(F)F)c(F)c1 (racemic) [Example 126, (R/S)-2-(3-fluoro-4-(trifluoromethyl)phenyl)-N-((5-(3-methoxyphenyl)isoquinolin-8-yl)methyl)butanamide]"
2,163,"COC(=O)c1cccc(-c2ccc(CNC(=O)c3nccc4ccccc34)c3cnccc23)c1 [Example 11, 8-((isoquinoline-1-carboxamido)methyl)-5-(3-(methoxycarbonyl)phenyl) isoquinolin-2-ium]"

# Same assay, conditions: read-out: IC50 values for inhibition of DGAT2; membrane prep of Sf-9 cells expressing hDGAT2; 25 μM diolein, 10 μM oleoyl-CoA; room temperature; triolein by LC/MS/MS
row,SMILES,IC50 [nM]
1,"COc1cccc(-c2ccc(CNC(=O)Nc3cccc(-c4ccccc4)c3)c3cnccc23)c1 [Example 157, 1-([1,1′-biphenyl]-3-yl)-3-((5(3-methoxyphenyl)isoquinolin-8-yl)methyl)urea]",116
2,"COc1cccc(-c2ccc(CNC(=O)Nc3ccc(F)cc3F)c3ncccc23)c1 [Example 170, 1-(2,4-difluorophenyl)-3-((5-(3-methoxyphenyl)quinolin-8-yl)methyl)urea]",8190
3,"COC(=O)c1cccc(-c2ccc(CNC(=O)C3CCN(c4ccc(C(F)(F)F)cc4)CC3)c3cnccc23)c1 [Example 5, methyl 3-(8-((1-(4-(trifluoromethyl)phenyl)piperidine-4-carboxamido)methyl)isoquinolin-5-yl)benzoate]",100
4,"COc1cccc(-c2ccc(CNC(=O)C3CCN(c4ccc(C(F)(F)F)cc4)CC3)c3cnccc23)c1 [Example 128, N-((5-(3-methoxyphenyl)isoquinolin-8-yl)methyl)-1-(4-(trifluoromethyl)phenyl)piperidine-4-carboxamide]",952
5,"O=C(NCc1ccc(-c2cccc(OC(F)(F)F)c2)c2ccncc12)C1CC1c1ccccc1 (centres unmarked) [Example 17, 2-phenyl-N-((5-(3-(trifluoromethoxy)phenyl)isoquinolin-8-yl)methyl)cyclopropanecarboxamide]",3760
6,"COc1cccc(-c2ccc(CNC(=O)C(C)c3ccc4cc(OC)ccc4c3)c3cnccc23)c1 (centres unmarked) [Example 143, 2-(6-methoxynaphthalen-2-yl)-N-((5-(3-methoxyphenyl)isoquinolin-8-yl)methyl)propanamide]",197
7,"COc1cccc(-c2ccc(CNC(=O)C(c3ccc(C(F)(F)F)cc3)C(C)C)c3cnccc23)c1 (centres unmarked) [Example 125, N-((5-(3-methoxyphenyl)isoquinolin-8-yl)methyl)-3-methyl-2-(4-(trifluoromethyl)phenyl)butanamide]",2460
8,"COc1cccc(-c2ccc(CNC(=O)[C@@H]3C[C@@H]3c3ccc(C(F)(F)F)cc3)c3cnccc23)c1 (relative stereo) [Example 144, (cis)-N-((5-(3-methoxyphenyl)isoquinolin-8-yl)methyl)-2-(4-(trifluoromethyl)phenyl) cyclopropanecarboxamide]",2560
9,"CC(c1ccccc1)c1ccc(CNC(=O)Nc2cccc(Cl)c2Cl)c2cnccc12 (centres unmarked) [Example 164, 1-(2,3-dichlorophenyl)-3-((5-(1-phenylethyl)isoquinolin-8-yl)methyl)urea]",4220
10,"O=C(O)CCc1ccc(-c2ccc(CNC(=O)Nc3cccc(Cl)c3Cl)c3cnccc23)cc1 [Example 163, 3-(4-(8-((3-(2,3-dichlorophenyl)ureido)methyl)isoquinolin-5-yl)phenyl)propanoic acid]",2360
11,"CCOc1cccc(-c2ccc(CNC(=O)C3CC3c3ccccc3)c3cnccc23)c1 (centres unmarked) [Example 15, N-((5-(3-ethoxyphenyl)isoquinolin-8-yl)methyl)-2-phenylcyclopropanecarboxamide]",115
12,"COc1cccc(-c2ccc(CNC(=O)c3cc(-c4ccccc4)nn3-c3ccccc3)c3cnccc23)c1 [Example 85, N-((5-(3-methoxyphenyl)isoquinolin-8-yl)methyl)-1,3-diphenyl-1H-pyrazole-5-carboxamide]",3580
13,"COc1cccc(-c2ccc(CNC(=O)C(F)c3ccc(C(F)(F)F)cc3)c3cnccc23)c1 (centres unmarked) [Example 124, 2-fluoro-N-((5-(3-methoxyphenyl)isoquinolin-8-yl)methyl)-2-(4-(trifluoromethyl)phenyl)acetamide]",2330
14,"COC(=O)c1cccc(-c2ccc(CNC(=O)c3cc(C(C)(C)C)nn3C)c3cnccc23)c1 [Example 7, methyl 3-(8-((3-(tert-butyl)-1-methyl-1H-pyrazole-5-carboxamido)methyl)isoquinolin-5-yl)benzoate]",111
15,"COC(=O)c1cccc(-c2ccc(CNC(=O)C3CC3c3nc(C)no3)c3cnccc23)c1 (centres unmarked) [Example 4, methyl 3-(8-((2-(3-methyl-1,2,4-oxadiazol-5-yl)cyclopropane-carboxamido)methyl)isoquinolin-5-yl)benzoate]",96.5

# Now from value to compound:
row,IC50 [nM],SMILES
1,5890,"COc1cccc(-c2ccc(CNC(=O)c3cn(Cc4ccccc4)nn3)c3cnccc23)c1 [Example 113, 1-benzyl-N-((5-(3-methoxyphenyl)isoquinolin-8-yl)methyl)-1H-1,2,3-triazole-4-carboxamide]"
2,1770,"COc1cccc(-c2ccc(CNC(=O)c3cc(C(F)(F)F)n[nH]3)c3cnccc23)c1 [Example 29, N-((5-(3-methoxyphenyl)isoquinolin-8-yl)methyl)-3-(trifluoromethyl)-1H-pyrazole-5-carboxamide]"
3,1570,"COc1cccc(-c2ccc(CNC(=O)c3nn(C)c(=O)c4ccccc34)c3cnccc23)c1 [Example 43, N-((5-(3-methoxyphenyl)isoquinolin-8-yl)methyl)-3-methyl-4-oxo-3,4-dihydrophthalazine-1-carboxamide]"
4,2050,"COc1cccc(-c2ccc(CNC(=O)c3cc(C4CC4)on3)c3cnccc23)c1 [Example 26, 5-cyclopropyl-N-((5-(3-methoxyphenyl)isoquinolin-8-yl)methyl)isoxazole-3-carboxamide]"
5,305,"COc1cccc(-c2ccc(CNC(=O)CCc3cnn(C)c3)c3cnccc23)c1 [Example 94, N-((5-(3-methoxyphenyl)isoquinolin-8-yl)methyl)-3-(1-methyl-1H-pyrazol-4-yl)propanamide]"
6,550,"COc1cccc(-c2ccc(CNC(=O)Cc3cc(F)c(F)cc3F)c3cnccc23)c1 [Example 59, N-((5-(3-methoxyphenyl)isoquinolin-8-yl)methyl)-2-(2,4,5-trifluorophenyl)acetamide]"
7,544,"COc1cccc(-c2ccc(CNC(=O)c3n[nH]c(=O)c4ccccc34)c3cnccc23)c1 [Example 110, N-((5-(3-methoxyphenyl)isoquinolin-8-yl)methyl)-4-oxo-3,4-dihydrophthalazine-1-carboxamide]"
8,9390,"COc1cccc(-c2ccc(CNC(=O)c3noc4c3CCCC4)c3cnccc23)c1 [Example 39, N-((5-(3-methoxyphenyl)isoquinolin-8-yl)methyl)-4,5,6,7-tetrahydrobenzo[d]isoxazole-3-carboxamide]"
9,1200,"COc1cccc(-c2ccc(CNC(=O)c3cccc(-c4cccc(F)c4)c3)c3cnccc23)c1 [Example 87, 3′-fluoro-N-((5-(3-methoxyphenyl)isoquinolin-8-yl)methyl)-[1,1′-biphenyl]-3-carboxamide]"
10,4460,"COc1cccc(-c2ccc(CNC(=O)c3ccc(-c4ccon4)cc3)c3cnccc23)c1 [Example 76, 4-(isoxazol-3-yl)-N-((5-(3-methoxyphenyl)isoquinolin-8-yl)methyl)benzamide]"
11,1250,"COc1cccc(-c2ccc(CNC(=O)c3csc(-c4ccc(C(F)(F)F)cc4)n3)c3cnccc23)c1 [Example 78, N-((5-(3-methoxyphenyl)isoquinolin-8-yl)methyl)-2-(4-(trifluoromethyl)phenyl)thiazole-4-carboxamide]"
12,2160,"COc1cccc(-c2ccc(CNC(=O)Cc3ccc(Oc4ccccc4)cc3)c3cnccc23)c1 [Example 53, N-((5-(3-methoxyphenyl)isoquinolin-8-yl)methyl)-2-(4-phenoxyphenyl)acetamide]"
13,537,"COc1ccc(C2CC2C(=O)NCc2ccc(-c3cccc(OC)c3)c3ccncc23)cc1 (centres unmarked) [Example 106, 2-(4-methoxyphenyl)-N-((5-(3-methoxyphenyl)isoquinolin-8-yl)methyl)cyclopropanecarboxamide]"
14,609,"COc1cccc(-c2ccc(CNC(=O)Cc3csc(-c4ccc(F)cc4)n3)c3cnccc23)c1 [Example 64, 2-(2-(4-fluorophenyl)thiazol-4-yl)-N-((5-(3-methoxyphenyl)isoquinolin-8-yl)methyl)acetamide]"
15,256,"COc1cccc(-c2ccc(CNC(=O)C(C)c3ccc(C#N)cc3)c3cnccc23)c1 (centres unmarked) [Example 136, 2-(4-cyanophenyl)-N-((5-(3-methoxyphenyl)isoquinolin-8-yl)methyl)propanamide]"
16,942,"COc1cccc(-c2ccc(CNC(=O)c3cc(C)n(Cc4ccccc4)n3)c3cnccc23)c1 [Example 117, 1-benzyl-N-((5-(3-methoxyphenyl)isoquinolin-8-yl)methyl)-5-methyl-1H-pyrazole-3-carboxamide]"
17,5840,"COc1cccc(-c2ccc(CNC(=O)c3c[nH]c(-c4ccccc4)n3)c3cnccc23)c1 [Example 73, N-((5-(3-methoxyphenyl)isoquinolin-8-yl)methyl)-2-phenyl-1H-imidazole-4-carboxamide]"
18,2330,"COc1cccc(-c2ccc(CNC(=O)c3coc(-c4ccccc4)n3)c3cnccc23)c1 [Example 70, N-((5-(3-methoxyphenyl)isoquinolin-8-yl)methyl)-2-phenyloxazole-4-carboxamide]"
19,818,"COc1cccc(-c2ccc(CNC(=O)CCc3nc(-c4ccccc4)no3)c3cnccc23)c1 [Example 30, N-((5-(3-methoxyphenyl)isoquinolin-8-yl)methyl)-3-(3-phenyl-1,2,4-oxadiazol-5-yl)propanamide]"
20,9050,"COc1cccc(-c2ccc(CNC(=O)c3cnc(-c4ccccc4)cn3)c3cnccc23)c1 [Example 75, N-((5-(3-methoxyphenyl)isoquinolin-8-yl)methyl)-5-phenylpyrazine-2-carboxamide]"
21,602,"COc1cccc(-c2ccc(CNC(=O)c3ccc(-c4ccccc4O)cc3)c3cnccc23)c1 [Example 82, 2′-hydroxy-N-((5-(3-methoxyphenyl)isoquinolin-8-yl)methyl)-[1,1′-biphenyl]-4-carboxamide]"
